Holding throughout (type): cell-based, human
Experiment [1] concerns JEG-3 cells. The experiment in a line: Metabolic activity (Alamar Blue) after dark exposure. The following applies: incubated in the dark for 24 hours; FIG. 1. As to the method:
Alamar Blue™ is a metabolic activity indicator that requires the reducing power of the cell to transform the dye from the non-fluorescent to the fluorescent. Decreased metabolic activity of a cell is generally associated with cell damage due to a variety of stressors.
JEG-3 cells, a human placental choriocarcinoma cell line of epithelial origin, were grown and maintained at 37° C., 5% CO2 in 75 mm^2 culture flasks until a confluent monolayer was formed. Cells were then removed, washed, re-suspended, and counted on a hemocytometer, allowing for the concentration to be adjusted to 30,000 cells/mL. Aliquots of 0.2 mL of the cell solution were added into each well of a 96 well micro-plate. The cells were incubated at 37° C., 5% CO2 for 48 hours prior to treatment to allow for a confluent monolayer to form. […]
Two viability experiments were done at the end of the incubation periods (Dark or SSR exposure). […] The presence of an intact membrane allows the CFDA-AM to concentrate and give a higher reading than may occur outside the cell. […] The plates were incubated for 30 minutes at 37° C./5% CO2 and were then read on a fluorimeter (PerSeptive Biosystems Cytofluor 4000) with excitation and emission, respectively, set at 530 nm and 590 nm for Alamar Blue™ and 485 nm and 530 nm for CFDA-AM. […] The results were calculated as a percentage of the control value.
Background: Alamar Blue is a resazurin reagent that responds to reducing activity.

In experiment [2] the test system is JEG-3 cells. Kind of experiment: Viability experiments (Alamar Blue and CFDA-AM) after simulated solar radiation (SSR) exposure. The following applies: SSR 16 hours. As to the method:
(§1) JEG-3 cells, a human placental choriocarcinoma cell line of epithelial origin, were grown and maintained at 37° C., 5% CO2 in 75 mm^2 culture flasks until a confluent monolayer was formed. Cells were then removed, washed, re-suspended, and counted on a hemocytometer, allowing for the concentration to be adjusted to 30,000 cells/mL. Aliquots of 0.2 mL of the cell solution were added into each well of a 96 well micro-plate. The cells were incubated at 37° C., 5% CO2 for 48 hours prior to treatment to allow for a confluent monolayer to form. The media was aspirated off and new media with test compounds were added at various concentrations.
(§2) All treatments were made in MEM without FBS. The anti-oxidants were added directly to the medium. The cells were then incubated for 16 hours at 37° C./5% CO2 under simulated solar radiation (SSR) conditions, with a UVB:UVA:visible light ratio of 0.3:5.52:96 mmol m−2 s−1 (total fluence rate: 102 mmol m−2 s−1, which is about 5% of full sunlight).
Two viability experiments were done at the end of the incubation periods (Dark or SSR exposure). Alamar Blue™ is a metabolic (primarily mitochondrial) activity indicator that requires the reducing power of the cell to transform the dye from non-fluorescent to fluorescent. Carboxy-fluorescein diacetate (CFDA-AM) is also a fluorescent dye that requires cellular esterases inside a cell to become fluorescent. The presence of an intact membrane allows the CFDA-AM to concentrate and give a higher reading than may occur outside the cell. Both dyes were combined in phosphate buffered saline with glucose (PBSG) buffer and added to the microplate wells after the media (MEM plus treatment) was removed. […] The plates were incubated for 30 minutes at 37° C./5% CO2 and were then read on a fluorimeter (PerSeptive Biosystems Cytofluor 4000) with excitation and emission, respectively, set at 530 nm and 590 nm for Alamar Blue™ and 485 nm and 530 nm for CFDA-AM. Because of the different excitation and emission wavelengths as well as little cross-reactivity, both dyes can be used simultaneously. The results were calculated as a percentage of the control value.

Experiment [3] deals with JEG-3 cells. Kind of experiment: Reactive oxygen species detection (H2DCFDA) after SSR exposure. The following applies: SSR 16 hours; FIG. 4. As to the method:
as §1, §2
To determine the levels of ROS generated in the cell system, another fluorescent probe, H2DCFDA, was used. After the 16-hour incubation period under SSR, the media was removed. The probe was added to PBSG in a ratio of 1 μl/ml for a final concentration of 4 nM according to manufacturer instructions. From this mixture, 200 μl/well was added and the plate read on the Cytofluor 4000 at 485 nm excitation and 530 nm emission for 4 hours with readings taken every hour. Results are stated in relative fluorescence units representing the fluorescent product, dichlorofluorescein (DCF). The results were calculated as a percentage of the dark control.

For the compound `NCCC(=O)N[C@@H](Cc1cnc[nH]1)C(=O)O` [carnosine, L-carnosine], the “metabolic activity compared to control cells” value in the experiment on JEG-3 cells [1] is given as “did not differ significantly from control”. Further, the “protection of cell viability” value in the experiment with JEG-3 cells [2] (10 mM) was “only partial protection”; with JEG-3 cells [2] (all concentrations), “only provided for partial protection of cell viability”. Moreover, the “ROS levels (DCF production)” value in the experiment with JEG-3 cells [3] was “did not decrease ROS levels”.
As to `N[C@@H](CCC(=O)N[C@@H](CS)C(=O)NCC(=O)O)C(=O)O` [GSH, glutathione], the “protection of cell viability” value with JEG-3 cells [2] (10 mM) is on record as “complete protection”.
Consider `CC(=O)N[C@@H](CS)C(=O)O` [NAC, N-acetylcysteine], for which the “metabolic activity compared to control cells” value with JEG-3 cells [1] is given as “did not differ significantly from control”. Moreover, the “protection of cell viability” value with JEG-3 cells [2] (10 mM) is reported as “complete protection”. Moreover, in the experiment on JEG-3 cells [3], the “ROS levels (DCF production)” value is recorded as “decreased dye levels (DCF production)” and the “protective effect on ROS compared to other antioxidants” value is “superior to ascorbate but not as great as GSH”.
Consider `O=C1O[C@H]([C@@H](O)CO)C(O)=C1O` [ascorbate, ascorbic acid], for which the “protection of cell viability” value with JEG-3 cells [2] (10 mM) is on record as “only partial protection”.

(Values after patent US20060286046A1, “Skin care compositions” (priority 2005, published 2006).)
